Where a name gives a salt, the structure may show the parent alone.
Tests used:
Conditions in all cases: exposure time: 72 h
[1] = test system: E21 (patient-derived glioblastoma stem cells of mesenchymal subtype); experiment: phenotypic distance (Euclidean, principal components) from DMSO controls (arbitrary units); higher = stronger morphological change
[2] = test system: E28 (patient-derived glioblastoma stem cells of classical subtype); experiment: as above
[3] = test system: FT3469 (normal neural stem cell line); experiment: as above
[4] = test system: E31 (patient-derived glioblastoma stem cells of proneural subtype); experiment: as above
[5] = test system: E57 (patient-derived glioblastoma stem cells of mesenchymal subtype); experiment: as above
[6] = test system: E13 (patient-derived glioblastoma stem cells of classical subtype); experiment: as above
[7] = test system: E34 (patient-derived glioblastoma stem cells of proneural subtype); experiment: as above
[8] = test system: E21; experiment: surviving fraction (nuclei count normalised to DMSO); higher = more cells surviving (less toxic)
[9] = test system: E28; experiment: as above
[10] = test system: FT3469; experiment: as above
[11] = test system: E31; experiment: as above
[12] = test system: E57; experiment: as above
[13] = test system: E13; experiment: as above
[14] = test system: E34; experiment: as above
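Wherever phenotypic distance (Euclidean, principal components) from DMSO controls is given: cell Painting imaging in 384-well plates, CellProfiler features reduced to at least 20 principal components, Euclidean distance versus same-plate DMSO vehicle wells (0.1% v/v), median over six images per well.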
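Wherever surviving fraction (nuclei count normalised to DMSO) is given: nuclei counted by high-content imaging of Hoechst-stained cells in laminin-coated 384-well plates, relative to 0.1% DMSO vehicle wells, with staurosporine as cell-death control.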

CCC1=C[C@@H]2CN(C1)Cc1c([nH]c3ccccc13)[C@@](C(=O)OC)(c1cc3c(cc1OC)N(C)[C@H]1[C@@](O)(C(=O)OC)[C@H](OC(C)=O)[C@]4(CC)C=CCN5CC[C@]31[C@@H]54)C2 [Vinorelbine Tartrate]
Conditions | phenotypic distance | surviving fraction
[1], 4.1 nM | 1.06 | –
[1], 12.3 nM | 1.08 | –
[1], 37 nM | 1.45 | –
[1], 111.1 nM | 2.33 | –
[1], 333.3 nM | 4.36 | –
[1], 1000 nM | 7 | –
[1], 3000 nM | 8.49 | –
[2], 4.1 nM | 0.584 | –
[2], 12.3 nM | 0.83 | –
[2], 37 nM | 0.727 | –
[2], 111.1 nM | 1.31 | –
[2], 333.3 nM | 2.18 | –
[2], 1000 nM | 2.7 | –
[2], 3000 nM | 3.22 | –
[3], 4.1 nM | 0.854 | –
[3], 12.3 nM | 1.01 | –
[3], 37 nM | 1.01 | –
[3], 111.1 nM | 1.12 | –
[3], 333.3 nM | 2.43 | –
[3], 1000 nM | 4.88 | –
[3], 3000 nM | 3.13 | –
[4], 4.1 nM | 0.666 | –
[4], 12.3 nM | 0.627 | –
[4], 37 nM | 0.856 | –
[4], 111.1 nM | 1.44 | –
[4], 333.3 nM | 3.01 | –
[4], 1000 nM | 4.58 | –
[4], 3000 nM | 5.73 | –
[5], 4.1 nM | 0.512 | –
[5], 12.3 nM | 0.688 | –
[5], 37 nM | 0.822 | –
[5], 111.1 nM | 0.746 | –
[5], 333.3 nM | 3.9 | –
[5], 1000 nM | 4.81 | –
[5], 3000 nM | 6.16 | –
[6], 4.1 nM | 1.1 | –
[6], 12.3 nM | 1.18 | –
[6], 37 nM | 1.26 | –
[6], 111.1 nM | 1.7 | –
[6], 333.3 nM | 2.71 | –
[6], 1000 nM | 4.6 | –
[6], 3000 nM | 6.33 | –
[7], 4.1 nM | 0.476 | –
[7], 12.3 nM | 0.944 | –
[7], 37 nM | 0.78 | –
[7], 111.1 nM | 1.01 | –
[7], 333.3 nM | 1.48 | –
[7], 1000 nM | 2.84 | –
[7], 3000 nM | 4.02 | –
[8], 4.1 nM | – | 0.868
[8], 12.3 nM | – | 0.894
[8], 37 nM | – | 0.926
[8], 111.1 nM | – | 0.761
[8], 333.3 nM | – | 0.586
[8], 1000 nM | – | 0.169
[8], 3000 nM | – | 0.1
[9], 4.1 nM | – | 0.904
[9], 12.3 nM | – | 0.815
[9], 37 nM | – | 0.801
[9], 111.1 nM | – | 0.749
[9], 333.3 nM | – | 0.609
[9], 1000 nM | – | 0.375
[9], 3000 nM | – | 0.353
[10], 4.1 nM | – | 0.953
[10], 12.3 nM | – | 0.829
[10], 37 nM | – | 0.834
[10], 111.1 nM | – | 0.827
[10], 333.3 nM | – | 0.569
[10], 1000 nM | – | 0.553
[10], 3000 nM | – | 0.56
[11], 4.1 nM | – | 0.794
[11], 12.3 nM | – | 0.911
[11], 37 nM | – | 0.749
[11], 111.1 nM | – | 0.649
[11], 333.3 nM | – | 0.37
[11], 1000 nM | – | 0.126
[11], 3000 nM | – | 0.0917
[12], 4.1 nM | – | 0.969
[12], 12.3 nM | – | 1.04
[12], 37 nM | – | 1.04
[12], 111.1 nM | – | 1.02
[12], 333.3 nM | – | 0.899
[12], 1000 nM | – | 0.447
[12], 3000 nM | – | 0.102
[13], 4.1 nM | – | 0.863
[13], 12.3 nM | – | 0.903
[13], 37 nM | – | 0.916
[13], 111.1 nM | – | 0.907
[13], 333.3 nM | – | 0.82
[13], 1000 nM | – | 0.371
[13], 3000 nM | – | 0.246
[14], 4.1 nM | – | 1.05
[14], 12.3 nM | – | 0.954
[14], 37 nM | – | 0.856
[14], 111.1 nM | – | 0.97
[14], 333.3 nM | – | 0.822
[14], 1000 nM | – | 0.57
[14], 3000 nM | – | 0.402

Source: the supplement of paper PMC13207355
